From patent publication US10780069B2, “Use of GC-1 in transplant related population” (University of Pittsburgh—Of the Commonwealth System of …, priority 2017, dated 2020)
“Also recorded” adds a separate entry of the source.

What was measured:
hepatocytes [1] = test: Partial hepatectomy after pretreatment with T3 or GC-1 supplemented diet; format: in vivo, mice
Method: (§1) To label dividing hepatocytes, BrdU (5-bromodeoxyuridine) dissolved in drinking water (1 mg/ml) was given to all animals throughout the experiment period. The animals were given food and water ad libitum with a 12-hour light/dark daily cycle.
After 7 days of receiving T3 supplemented diet (n=3) or GC-1 diet (n=3) or standard basal mouse chow (n=3), C57BL/6 male mice underwent partial hepatectomy as described previously (Tan et al. (2006) Gastroenterology 131, 1561-1572). Anesthesia was provided with inhaled Isoflurane. The animals were sacrificed 24 hours post hepatectomy, after Isoflurane anesthesia and cervical dislocation. Serum and liver tissue were harvested for further processing.
(§2) Four micron liver sections were analyzed by immunohistochemistry for β-Catenin (BD Biosciences, San Jose, Calif.), Cyclin-D1 (Thermo-Scientific, Fremont, Calif.) and PCNA (Santa Cruz Biotechnology, Dallas, Tex.). Briefly, formalin-fixed sections were deparaffinized in graded xylene and alcohol. Endogenous peroxidase was inactivated using 3% hydrogen peroxide (Sigma). For β-Catenin, Cyclin-D1 staining, slides were microwaved in Citrate buffer followed by blocking with Superblock for 10 minutes. Sections were then incubated with secondary anti-mouse (for β-catenin) or anti-rabbit (for Cyclin-D1) horseradish peroxidase-conjugated antibody for 30 minutes.
(§3) Bromodeoxyuridine (BrdU) was stained with mouse antibody (Becton Dickinson) as previously described (Fanti et al. (2014) Hepatology 59, 2309-2320). Briefly, tissue sections were deparaffinized, exposed to 0.3% hydrogen peroxide in deionized water for 10 minutes to block endogenous peroxidase, treated with 2N HCl, incubated with trypsin 0.1% for 20 minutes and then with normal goat serum for 20 minutes at room temperature. Sections were then incubated overnight in cold room with anti-BrdU monoclonal antibody, followed by biotinylated goat anti-mouse IgG. DAB kit was then applied, and sections were counterstained with hematoxylin. A small segment of intestine was included from each mouse as a positive control for the staining. For quantification of BrdU staining, at least 10 high power fields (400× or 600×) fields each from at least three biological replicates were counted as indicated in the figures. Statistical analysis was performed as described below.

hepatocytes [2] = test: T3- or GC-1-supplemented diet in wild type mice: hepatocyte proliferation; format: in vivo
Method: All studies on mice were performed in strict accordance with Guidelines. Eight-week old male C57BL/6 male mice (Jackson/Charles River) were maintained on a standard laboratory basal diet (Test Diet) (n=4), or fed a T3-supplemented diet (4 mg/Kg of diet, Sigma Chemicals, St. Louis Mo.) (n=4). GC-1 was administered to the eight week-old male C57BL/6 male mice either via GC-1-supplemented diet (5 mg/Kg of diet, Medchem Express) for 8 days (n=4) or via daily intraperitoneal injections (IP) of GC-1 dissolved in DMSO (0.3 mg/kg/dose) for 8 days (n=7). As a control group for injections, DMSO alone was injected daily intraperitoneal (IP) for 8 days (n=5). Mice were sacrificed 24 hours after the last injection.
as §1, §2, §3

[3] = system: β-catenin-TCF4 reporter activity in HepG2 cells (exon-3-deletion mutant of CTNNB1); test: TopFlash reporter assay in HepG2 cells; format: cell-based, human; conditions: (methods: 5-7 μM, 24 hours), vs DMSO
Source text: Three liver tumor cell lines Hep3B, HepG2 and Snu-398 cells were obtained from ATCC (Manassas, Va.). Cells were transfected simultaneously with Renilla reniformis luciferase (pRL-TK; Promega, Madison, Wis.) as a transfection control and TopFlash firefly luciferase plasmids (Upstate Biotechnology, Lake Placid, N.Y.), which contains three copies of the Tcf/Lef sites upstream of a thymidine kinase (TK) promoter and the firefly luciferase gene using Lipofectamine 2000 (Life Technologies). Twenty-four hours after transfection, cells were treated with either DMSO (Fisher Scientific) or 5-7 μM GC-1 (Medchem Express, Monmouth Junction, N.J.) for 24 hours. Lysates were harvested using the Dual-Luciferase Reporter Assay System (Promega, Madison, Wis.). Firefly luciferase signals were normalized to Renilla luciferase and ratio between groups compared by student's t-test to determine significance. P<0.05 was considered significant.

Question: How did the “nuclear cyclin-D1 immunohistochemistry at 24 hours after hepatectomy” value (hepatocytes [1]; 24 hours after hepatectomy) turn out when `Cc1cc(OCC(=O)O)cc(C)c1Cc1ccc(O)c(C(C)C)c1` [GC-1, Sobetirome] was run?
Answer: The value was “panlobular distribution”.

Question: What about the “BrdU positive hepatocyte nuclei at 24 hours after hepatectomy” value (hepatocytes [1]; diet pretreatment, vs basal diet) of the same compound?
Answer: Its value is “pronounced increase”.

Question: And the “increase in hepatocyte proliferation over the 24-hour liver regeneration period” value (hepatocytes [1]; pre-hepatectomy vs 24 hour-post hepatectomy, same animals, all three mice)?
Answer: Its value is “around 2 fold”.

Question: What about the “cyclin-D1 immunohistochemistry in resected lobes at time of hepatectomy” value (hepatocytes [1]; pretreatment livers) of the same compound?
Answer: The value was “expansion of cyclin-D1 positive hepatocytes in the midzonal area”.

Question: What about the “BrdU-positive hepatocytes in resected lobes at time of hepatectomy” value (hepatocytes [1]; seven-day pretreatment, vs basal diet) of the same compound?
Answer: Its value is “increased BrdU-positive hepatocytes”.

Question: What about the “hepatocyte proliferation relative to T3” value (hepatocytes [2]; GC-1 diet versus T3 diet, 8 days) of the same compound?
Answer: The value was “modestly less extent than T3”.

Question: And the BrdU incorporation (hepatocytes [2]; T3 (4 mg/Kg of diet) or GC-1 (5 mg/Kg of diet) chow 8 days, vs basal diet)?
Answer: Its BrdU incorporation is “increased BrdU incorporation”.

Question: And the “cyclin-D1 staining in hepatocytes” value (hepatocytes [2]; T3 diet or IP GC-1, 8 days, vs respective controls)?
Answer: The value was “notably increased cyclin-D1 staining”.

Question: And the “cyclin-D1 staining in hepatocytes” value (hepatocytes [2]; T3 or GC-1 supplemented diet 8 days, vs basal diet)?
Answer: The value was “increased in both groups”.

Question: And the “BrdU-positive hepatocytes, T3 diet versus IP GC-1” value (hepatocytes [2]; T3 supplemented diet versus IP GC-1, 8 days, p<0.001 between groups)?
Answer: Its value is “overall fewer number of BrdU-positive hepatocytes”.

Question: What about the “TopFlash luciferase reporter activity” value [3] of the same compound?
Answer: The value was “no significant effect; also recorded: insignificant differences”.
